Reference: publication PMC7288026, “Novel Class of Chalcone Oxime Ethers as Potent Monoamine Oxidase-B and Acetylcholinesterase Inhibitors” (Molecules, 2020)
Where “and” joins values, the source holds several entries; their conditions need not be identical. Identical values can stand only once. Like-named read-outs stand apart in the source and are kept apart here.

Tests used:
[1] = molecular target: T1, AChE (Type VI-S from Electrophorus electricus) (Electrophorus electricus, UniProt O42275); test: AChE inhibition assay (DTNB / acetylthiocholine iodide); format: biochemical; settings: for remaining activity at 10 µM: compound at 10 µM, mean ± standard error of duplicate experiments, read-out: Residual Activity (%) AChE (10 µM)
T1 construct: purchased Sigma-Aldrich Type VI-S
Experimental: (§1) AChE activity was measured using Type VI-S from Electrophorus electricus in the presence of 0.5 mM 5,5’-dithiobis(2-nitrobenzoic acid) and 0.5 mM acetylthiocholine iodide, as described previously. Enzymes and chemicals were purchased from Sigma–Aldrich (St. Louis, MO, USA).
Kinetic experiments were carried out at five substrate and three inhibitor concentrations.

MAO-B [2] = molecular target: T2, MAO-B (Homo sapiens, UniProt P27338); test: Reversibility of MAO-B inhibition by dialysis; format: biochemical; settings: for Reversibility of MAO-B inhibition: dialysis method
T2 construct: purchased Sigma-Aldrich
T2 sequence (P27338 1-520): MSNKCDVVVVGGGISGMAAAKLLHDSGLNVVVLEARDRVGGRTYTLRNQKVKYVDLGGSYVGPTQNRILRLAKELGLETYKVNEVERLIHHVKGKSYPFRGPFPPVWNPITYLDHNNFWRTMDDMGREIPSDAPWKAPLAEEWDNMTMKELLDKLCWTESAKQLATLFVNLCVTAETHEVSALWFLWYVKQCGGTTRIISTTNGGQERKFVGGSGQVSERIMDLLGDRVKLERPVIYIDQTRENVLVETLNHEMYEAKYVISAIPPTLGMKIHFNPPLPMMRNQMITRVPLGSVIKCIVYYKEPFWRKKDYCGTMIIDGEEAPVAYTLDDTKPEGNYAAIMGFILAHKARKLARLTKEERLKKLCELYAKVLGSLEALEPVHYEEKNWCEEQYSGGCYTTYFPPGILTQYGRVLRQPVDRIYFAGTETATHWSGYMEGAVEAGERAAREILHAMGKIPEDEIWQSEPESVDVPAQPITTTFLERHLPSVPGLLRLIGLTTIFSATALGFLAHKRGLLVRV
Text: Relative activities of undialyzed (AU) and dialyzed (AD) samples were used to determine the reversibilities.

MAO-B [3] = molecular target: T2, MAO-B; test: Kinetics of MAO-B inhibition (Lineweaver-Burk and secondary plots); format: biochemical; settings: for Mode of MAO-B inhibition: Lineweaver-Burk plots; for Ki: competitive inhibition, secondary plots of slopes vs. inhibitor concentration
Experimental: (§2) AChE inhibitory activities were also determined, except at a concentration of 10 µM. […] Kinetic experiments were carried out at five substrate and three inhibitor concentrations.

recombinant hMAO-A = molecular target: T3, recombinant hMAO-A (Homo sapiens, UniProt P21397); test: MAO-A inhibition assay (kynuramine substrate); format: biochemical; settings: for remaining activity at 1 µM: compound at 1.0 µM, mean ± standard error of duplicate experiments, read-out: Residual Activity (%) MAO-A (1.0 µM); for IC50: mean ± standard error of duplicates, reference compounds after 30 min preincubation with enzyme
T3 construct: purchased Sigma-Aldrich
T3 sequence (P21397 1-527): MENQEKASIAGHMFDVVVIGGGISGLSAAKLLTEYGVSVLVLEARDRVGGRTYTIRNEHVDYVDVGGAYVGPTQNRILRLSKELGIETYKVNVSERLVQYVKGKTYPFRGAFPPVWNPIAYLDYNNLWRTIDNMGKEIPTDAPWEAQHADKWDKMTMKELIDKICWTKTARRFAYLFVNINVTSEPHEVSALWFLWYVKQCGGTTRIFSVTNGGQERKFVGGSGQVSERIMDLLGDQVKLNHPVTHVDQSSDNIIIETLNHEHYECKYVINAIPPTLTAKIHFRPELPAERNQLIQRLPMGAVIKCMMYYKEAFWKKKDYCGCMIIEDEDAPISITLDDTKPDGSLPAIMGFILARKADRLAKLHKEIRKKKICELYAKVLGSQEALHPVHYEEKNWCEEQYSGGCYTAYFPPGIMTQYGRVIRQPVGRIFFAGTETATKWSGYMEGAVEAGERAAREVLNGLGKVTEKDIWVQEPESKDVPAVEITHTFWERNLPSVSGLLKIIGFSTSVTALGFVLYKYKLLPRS
Experimental: as §1, with “Recombinant hMAO-A and hMAO-B activities were assayed while using kynuramine (0.06 mM) and benzylamine (0.3 mM) as substrates, respectively, as described previously. […] AChE” for “AChE”
as §2

MAO-B [4] = molecular target: T2, MAO-B; test: biochemical; settings: for SI (selectivity index, ratio of IC50 MAO-A to MAO-B): MAO-A vs. MAO-B IC50 ratio; for IC50: mean ± standard error of duplicates, reference compounds after 30 min preincubation with enzyme, read-out: IC50 (µM) MAO-B; for remaining activity at 1 µM: read-out: Residual Activity (%) MAO-B (1.0 µM)
Experimental: as §1, with “Recombinant hMAO-A and hMAO-B activities were assayed while using kynuramine (0.06 mM) and benzylamine (0.3 mM) as substrates, respectively, as described previously. […] AChE” for “AChE”, “USA). […]” for “USA).”

MAO-B [5] = molecular target: T2, MAO-B; settings: read-out: IC50 MAO-B of earlier chalcone derivative; cited from earlier work

T1 sequence (O42275 24-633): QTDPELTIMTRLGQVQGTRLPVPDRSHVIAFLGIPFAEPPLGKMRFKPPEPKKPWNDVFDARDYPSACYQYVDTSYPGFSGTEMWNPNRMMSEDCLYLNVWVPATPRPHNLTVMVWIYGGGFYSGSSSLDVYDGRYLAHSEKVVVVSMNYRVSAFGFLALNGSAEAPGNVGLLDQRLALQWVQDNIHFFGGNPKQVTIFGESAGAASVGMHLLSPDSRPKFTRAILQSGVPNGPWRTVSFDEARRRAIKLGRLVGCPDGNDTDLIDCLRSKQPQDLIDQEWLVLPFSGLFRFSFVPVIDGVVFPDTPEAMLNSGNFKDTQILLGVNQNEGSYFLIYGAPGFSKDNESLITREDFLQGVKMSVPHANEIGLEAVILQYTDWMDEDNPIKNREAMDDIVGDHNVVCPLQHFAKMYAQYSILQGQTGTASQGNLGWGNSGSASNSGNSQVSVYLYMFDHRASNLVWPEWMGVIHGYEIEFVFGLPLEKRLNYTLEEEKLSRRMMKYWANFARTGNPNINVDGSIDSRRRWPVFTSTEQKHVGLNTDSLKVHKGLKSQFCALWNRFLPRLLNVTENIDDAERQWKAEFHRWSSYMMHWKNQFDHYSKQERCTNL

O=C(/C=C/c1ccc(ON=C2CCCCC2)cc1)c1ccc(F)cc1 [COE-6]
IC50 [1]: > 40 µM | remaining activity at 10 µM [1]: 79.4 ± 3.97% | Reversibility of MAO-B inhibition (MAO-B [2]): reversible inhibitors | Relative MAO-B activity, dialyzed (AD) (MAO-B [2]; ~2 × IC50 of inhibitor, 30 min preincubation, after dialysis): 81.1% | Relative MAO-B activity, undialyzed (AU) (MAO-B [2]; ~2 × IC50 of inhibitor, 30 min preincubation, undialyzed): 19.7% | Mode of MAO-B inhibition (MAO-B [3]): competitively inhibited | Ki (MAO-B [3]): 0.0075 µM | remaining activity at 1 µM (recombinant hMAO-A): 76.8 ± 3.98% | IC50 (recombinant hMAO-A): 4 ± 0.021 µM | MAO-B potency relative to clorgyline (times more potent) (MAO-B [4]): 105.6 times and 105 times | MAO-B potency relative to lazabemide (times more potent) (MAO-B [4]): 2.33 times and 2.3 times | MAO-B potency relative to pargyline (times more potent) (MAO-B [4]): 1.1 times | SI (selectivity index, ratio of IC50 MAO-A to MAO-B) (MAO-B [4]): 222.2 | IC50 (MAO-B [4]): 0.02 µM and 0.018 µM | remaining activity at 1 µM (MAO-B [4]): -1.06 ± 1.84%

CCO/C(C)=N/Oc1ccc(/C=C/C(=O)c2ccc(F)cc2)cc1 [L3, ethyl (1E)-N-{4-[(1E)-3-(4-fluorophenyl)-3-oxoprop-1-en-1-yl]phenoxy}ethanimidate]
IC50 (MAO-B [5]): 0.053 µM

COc1ccc(/C=C/C(=N/Oc2ccc(/C=C/C(=O)c3ccc(F)cc3)cc2)c2ccc(OC)cc2)cc1 [COE-22]
remaining activity at 10 µM [1]: < 50% | Reversibility of MAO-B inhibition (MAO-B [2]): reversible inhibitors | Mode of MAO-B inhibition (MAO-B [3]): competitively inhibited | Ki (MAO-B [3]): 0.01 µM | remaining activity at 1 µM (recombinant hMAO-A): 81.8 ± 0.99% | IC50 (MAO-B [4]): 0.028 ± 0.0042 µM | remaining activity at 1 µM (MAO-B [4]): 5.47 ± 0.21%

COc1ccc(/C=C/C(=O)c2ccc(O/N=C(\C)c3ccc(F)cc3)cc2)cc1 [COE-11]
IC50 [1]: > 40 µM | remaining activity at 10 µM [1]: 87.2 ± 0.47% | remaining activity at 1 µM (recombinant hMAO-A): 86 ± 6.58% | IC50 (recombinant hMAO-A): > 10 µM | SI (selectivity index, ratio of IC50 MAO-A to MAO-B) (MAO-B [4]): >5.5 | IC50 (MAO-B [4]): 1.82 ± 0.022 µM | remaining activity at 1 µM (MAO-B [4]): 68.5 ± 1.83%

COc1ccc(/C=C/C(=N/Oc2ccc(C(C)=O)cc2)c2ccc(OC)cc2)cc1 [COE-17]
IC50 [1]: > 40 µM | remaining activity at 10 µM [1]: 80.3 ± 1.39% | remaining activity at 1 µM (recombinant hMAO-A): 80.9 ± 2.01% | IC50 (recombinant hMAO-A): > 10 µM | SI (selectivity index, ratio of IC50 MAO-A to MAO-B) (MAO-B [4]): >13.9 | IC50 (MAO-B [4]): 0.72 ± 0.015 µM | remaining activity at 1 µM (MAO-B [4]): 17.6 ± 2.77%
